Publication PMC10609081, “In Vivo Trafficking of the Anticancer Drug Tris(8-Quinolinolato) Gallium (III) (KP46) by Gallium-68/67 PET/SPECT Imaging” (Molecules, 2023)

What was measured:
[1] = Distribution/partition coefficients (logD, logP), shake flask with gamma counting; type: physicochemical; details: tracer level, mean ± SD
Protocol: Tracer-level [^68Ga]KP46 and [^68Ga]Ga-acetate solutions (5–20 µL, 0.3–0.5 MBq) were added to a pre-equilibrated mixture (500 µL/500 µL) of octanol/water (for logP measurement) or octanol/PBS (for logD7.4 measurement). Samples were vortexed for two minutes in a Multi Vortex Mixer V-32 (Grant Bio). From each layer, a sample of 200 µL was taken and its radioactivity measured using a gamma counter.

[2] = Octanol extraction of serum, urine and gut contents after oral radiolabelled KP46 (speciation); type: in vivo, mice; details: 4 h
Protocol: Serum and urine from the “tracer level” group (E) were subjected to octanol extraction 24 h postadministration to determine the fraction of ^67Ga that may have survived in the form of [^67Ga]KP46 after absorption from the gut.
Oral [^68/67Ga]KP46: The protocol for oral administration experiments reported here was devised on the basis of pilot experiments described in Supplementary Materials (Figure S12). For short-term (up to 4 h) studies with ^68Ga, awake (nonanaesthetised, to avoid suppressive effects of anaesthesia on digestive tract activity) mice that had been fasted for up to 14 h were given [^68Ga]KP46 (5–13 MBq) (group C, “tracer”, n = 3) or [^68Ga]KP46 and KP46 (5–8.5 MBq) (group D, “bulk”, n = 3) by oral gavage. The dose given orally to group D animals, prepared as described above, was 0.4 μmol in 400 μL, molar activity ca. 25 MBq/μmol. The mice were fasted for three hours before being anaesthetised and PET/CT scanned dynamically for one hour (see below for scanning protocol). After scanning, mice in both groups were culled by neck dislocation while still anaesthetised four hours post-oral administration for organ harvesting and gamma counting. Samples of blood, urine and contents of stomach, small intestine and large intestine (the organs/tissue with measurable activity; tumours were not included as they were insufficiently radioactive) from the mice in group C were used for octanol extraction (shake-flask method) to separate water-soluble (released) and lipid-soluble (intact KP46) ^68Ga. Serum samples were prepared by placing blood samples in a serum separator tube (brand VS367954, Fisher Scientific Ltd., Loughborough, UK) and centrifuging at 3000 rpm for 10 min. Serum (200–300 µL) and urine samples (150–180 µL, taken from the excised bladders) were directly added to Eppendorf tubes containing a pre-equilibrated mixture of octanol (500 µL) and water (500 µL). The tubes were vortexed for two minutes on a Multi Vortex Mixer V-32 (Grant Bio). After separation of layers, a sample of 400 µL from each layer was transferred to fresh Eppendorf tubes and analysed with a gamma counter. Stomach content (72–77 mg), small intestine content (35–88 mg), and large intestine content (86–100 mg) samples from each mouse were analysed similarly by adding them directly to Eppendorf tubes containing a pre-equilibrated mixture of octanol (500 µL) and water (500 µL) before vortexing and centrifuging at 10,000 rpm for 10 min at 4 °C. From each layer, 430 µL was transferred to fresh Eppendorf tubes and analysed with a gamma counter; the solid residues were also counted. Tissues from mice in group D were used after radioactive decay for measurements of nonradioactive ^69Ga content.

[3] = after removal of solids, octanol extraction, group C
[4] = not extracted into octanol or water, oral tracer (group C)
[5] = octanol extraction, oral tracer (group C)

[68Ga+3].[O-]c1cccc2cccnc12.[O-]c1cccc2cccnc12.[O-]c1cccc2cccnc12 [[^68Ga]KP46]
logD(octanol/PBS) ([1]; octanol/PBS): 1.90 ± 0.19
logP(octanol/water) ([1]; octanol/water): 2.33 ± 0.28
soluble radioactivity in aqueous phase, large intestine [2, 3]: 95.5% ± 4.2%
soluble radioactivity in aqueous phase, small intestine [2, 3]: 95% ± 2.5%
soluble radioactivity in aqueous phase, stomach [2, 3]: 76.8% ± 8.7%
activity present in solids, large intestine contents [2, 4]: 83.7% ± 8.8%
activity present in solids, small intestine contents [2, 4]: 80.7% ± 19.4%
activity present in solids, stomach contents [2, 4]: 82.9% ± 10.7%
68Ga in aqueous phase, serum [2, 5]: 98.6% ± 1.5%
68Ga in aqueous phase, urine [2, 5]: 98.2% ± 1.7%
